Source: patent US12648951B2, “Methods of treating castration-resistant prostate cancer with glucocorticoid receptor antagonists, androgen deprivation therapy and anti-androgen receptor therapy” (University of Chicago, priority 2012, dated 2026)
Where two headings read alike, the source gives them in different places.

Experiments:
[1] = system: LAPC4 prostate cancer cell line; assay: Cell survival of LAPC4 cells grown with MDV3100, R1881, Dex, Mif, GSK650394; type: cell-based, human
Excerpt: (§1) GR Antagonist Studies. […]. SGK1-FLAG or vector was stably expressed and cellular viability, secreted PSA, and protein lysates were collected.

[2] = system: CWR-22RV1 (22RV1) prostate cancer cell line; assay: Cell survival of CWR-22RV1 cells grown with MDV3100, R1881, Dex, GSK650394; type: cell-based, human
Excerpt: as §1

[3] = system: LAPC4 cell line; assay: GR expression following MDV3100 treatment, LAPC4; type: cell-based, human
[4] = system: CWR-22RV1 cell line; assay: GR expression following MDV3100 treatment, CWR-22RV1; type: cell-based, human
[5] = system: SGK1; assay: Expression of SGK1 in prostate cancer cell lines; type: cell-based, human; settings: MDV3100, and addition of Dex
Excerpt: as §1

[6] = system: CRPC cell lines; assay: GR expression level in CRPC cell lines; type: cell-based, human; settings: addition of MDV3100, within 3-7 days
[7] = system: LNCaP cells engineered to express elevated levels of AR; settings: cited from earlier work
[8] = system: breast cancer cell; settings: cited from earlier work
[9] = system: metastatic castration-resistant prostate cancer patients; settings: cited from earlier work
[10] = system: prostate specific antigen serum levels; settings: after a month of taking the medicine; cited from earlier work
[11] = system: castration-resistant prostate cancer patients who have received prior docetaxel; settings: cited from earlier work
[12] = system: CRPC cell lines; assay: Proliferation / growth of castrate-resistant prostate cancer cell lines; type: cell-based, human
Excerpt: as §1

[13] = cited from earlier work
[14] = at 9 months; cited from earlier work
[15] = system: advanced prostate cancer; settings: cited from earlier work

O=C(O)c1ccc(-c2c[nH]c3ncc(-c4ccccc4)cc23)cc1C1CCCC1 [GSK650394]
% survival relative to R1881+Dex control ([1]; LAPC4, GSK650394 added to MDV3100+Dex): 19%
cell survival following treatment with the SGK1 inhibitor ([2]; results similar to LAPC4): impaired

CNC(=O)c1ccc(N2C(=S)N(c3ccc(C#N)c(C(F)(F)F)c3)C(=O)C2(C)C)cc1F [MDV3100]
reduction in cell death compared to R1881+Dex control ([1]; LAPC4): 26%
cell survival compared to R1881 control ([1]; LAPC4, MDV3100 with vs without Dex): 47%
survival under MDV3100 treatment ([1]; SGK1-Flag over-expressing LAPC4 cells): 61%
survival under MDV3100 treatment ([1]; vector control LAPC4 cells): 24%
cell survival ([2]; MDV3100 with vs without Dex): 51%
GR expression [3]: increased
GR expression [4]: increased
Expression of SGK1 [5]: reduced
GR expression level [6]: significantly increases
expression of androgen dependent genes PSA and TMPRSS2 [7]: down regulated
breast cancer cell growth [8]: inhibits breast cancer cell growth
Median time to radiographic progression ([9]; chemo-naive patients): 56 weeks
patients with PSA level decreased more than 50 percent ([9]; chemo-naive patients): 40/65
patients with PSA level decreased more than 50 percent ([9]; chemotherapy-treated patients): 38/75
Median time to radiographic progression ([9]; post-chemotherapy population): 25 weeks
decrease in prostate specific antigen serum levels [10]: ≤ 89%
lived longer than those taking placebo ([11]; AFFIRM interim analysis): approximately 5 months
median survival after progression on MDV3100 ([11]; in vivo): under 1 year
survival advantage ([11]; phase III, reported in 2012): 4-5 month

CC#C[C@]1(O)CC[C@H]2[C@@H]3CCC4=CC(=O)CCC4=C3[C@@H](c3ccc(N(C)C)cc3)C[C@@]21C [Mif, mifepristone]
change in survival compared to R1881+Dex control ([1]; LAPC4, addition of Mif alone): no change in survival
proliferation with addition of a GR inhibitor to MDV3100 under GR activation [12]: restoring the decrease in proliferation

CC(C)C(=O)Nc1ccc([N+](=O)[O-])c(C(F)(F)F)c1 [flutamide]
hepatic impairment ([13]; doses of 125 mg/day or less): No cases of hepatic impairment
hepatotoxicity ([13]; warnings from patients using 750 mg daily): fatal hepatotoxicity has been reported

CCNC(=O)[C@@H]1CCCN1C(=O)[C@H](CCCNC(=N)N)NC(=O)[C@H](CC(C)C)NC(=O)[C@@H](CC(C)C)NC(=O)[C@H](Cc1ccc(O)cc1)NC(=O)[C@H](CO)NC(=O)[C@H](Cc1c[nH]c2ccccc12)NC(=O)[C@H](Cc1c[nH]cn1)NC(=O)[C@@H]1CCC(=O)N1 [leuprolide]
Overall survival [14]: 90.5%
cardiovascular toxicity ([15]; human, in vivo): lower incidence of cardiovascular toxicity
reducing serum testosterone to castrate levels ([15]; monthly depot): equivalent to 3 mg of DES

CC(C)C[C@H](NC(=O)[C@@H](Cc1c[nH]c2ccccc12)NC(=O)[C@H](Cc1ccc(O)cc1)NC(=O)[C@H](CO)NC(=O)[C@H](Cc1c[nH]c2ccccc12)NC(=O)[C@H](Cc1c[nH]cn1)NC(=O)[C@@H]1CCC(=O)N1)C(=O)N[C@@H](CCCNC(=N)N)C(=O)N1CCC[C@H]1C(=O)NCC(N)=O [triptorelin]
Overall survival [14]: 97%
